Assay results taken from ChEMBL document CHEMBL1201862, “PubChem BioAssay data set” (2004).
Activity calls are given as the source filed them.

Columns and labels:
A-375 [1] = assay: MITF: Counter assay: A375 proliferation Measured in Cell-Based System Using Plate Reader - 2084-03_Inhibitor_Dose_DryPowder_Activity. [Related pubchem assays (depositor defined):AID488944]; type: functional; conditions: Homo sapiens
Jurkat = assay: antigen receptor-induced NF-kB inhibitors, dose response, Jurkat, luciferase reporter, luminescence, B- and T-cell (AID 489004); type: functional, cell-based; conditions: Homo sapiens;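 also: NF-kB luciferase reporter Jurkat cells stimulated with PMA plus ionomycin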
[2] = inhibitors of HIV Env-driven cell fusion, dose response, cherry-pick (AID 652057); type: functional, cell-based
[3] = target: T1, Microphthalmia-associated transcription factor (Homo sapiens, UniProt O75030); assay: TRPM1 promoter luciferase signal decrease, dose response, MITF inhibitor project, cell-based, SK-MEL-5, cherry-picked, set 3 (AID 493073); type: functional
T1 sequence (O75030 whole entry): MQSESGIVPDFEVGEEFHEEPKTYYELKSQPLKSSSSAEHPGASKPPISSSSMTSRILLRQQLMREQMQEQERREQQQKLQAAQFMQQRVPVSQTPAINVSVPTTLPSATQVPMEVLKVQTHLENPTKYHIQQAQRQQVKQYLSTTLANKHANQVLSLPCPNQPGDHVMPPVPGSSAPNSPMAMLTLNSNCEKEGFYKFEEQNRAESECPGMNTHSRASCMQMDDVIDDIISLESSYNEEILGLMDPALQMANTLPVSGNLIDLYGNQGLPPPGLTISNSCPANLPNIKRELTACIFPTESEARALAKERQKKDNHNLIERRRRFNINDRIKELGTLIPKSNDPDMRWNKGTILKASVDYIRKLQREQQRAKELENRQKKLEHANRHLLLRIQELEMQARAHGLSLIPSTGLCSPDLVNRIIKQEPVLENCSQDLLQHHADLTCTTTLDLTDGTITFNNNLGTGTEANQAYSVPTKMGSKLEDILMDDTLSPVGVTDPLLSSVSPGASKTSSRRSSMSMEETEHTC

[4] = target: T2, Luciferin 4-monooxygenase (Photinus pyralis, UniProt P08659); assay: Counter Screen for Luciferase-based Assay Positives. [Related pubchem assays: 620, 618, 411 ]
HT-1080 = assay: cytotoxicity in HT1080 fibrosarcoma cells, cell-based, fluorescence readout (AID 620); type: functional; conditions: Homo sapiens
[5] = cytotoxicity in HEK-293T NF-kB-Luc cells, dose response, cytotoxicity control for B/T-cell NF-kB inhibitor project, cell-based, uHTS hits (AID 489019); type: functional;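 also: IC50 reflects cytotoxicity as loss of cell viability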
[6] = inhibitors of clade B AD8 Env fusion, dose response, cell-based, cherry-pick (AID 652062); type: functional;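 also: luciferase signal from cell-cell fusion driven by HIV-1 clade B AD8 Env; potency is for inhibitors of fusion seen as a drop in luminescence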
A-375 [7] = assay: A375 melanoma cell viability reduction, dose response, counter-screen for MITF modulator project, cherry-pick samples, set 2 (AID 540335); type: functional, cell-based; conditions: Homo sapiens
[8] = ZM109 Env clade C HIV-1 fusion inhibitors, dose response, HeLa effector, CEM target cells, luciferase, cherry-pick (AID 652058); type: functional, cell-based
[9] = off-target signal loss in HeLa-CEM21 co-culture – HeLa F-luc CTL cells, cherry-picked, counter-screen for HIV-1 Env fusion inhibitor project, dose response (AID 652040); type: functional, cell-based;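 also: potency for signal decrease marking cytotoxic or nonspecific inhibition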
Cysteine protease ATG4B = Cysteine protease ATG4B (Homo sapiens, UniProt Q9Y4P1); type: functional;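 also: Fluorescence-based dose-response confirmation assay measuring inhibition of ATG4B activity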
Phospholipase A2 = Phospholipase A2 (Homo sapiens, UniProt P04054); type: functional;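 also: confirmatory dose-response counterscreen on phospholipase A2, testing hits that came from an ultra-high-throughput screen for ATG4B inhibitors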
Streptokinase A = target: T3, Streptokinase A (Streptococcus pyogenes serotype M1, UniProt P10520); assay: S. pyogenes streptokinase expression inhibitors, potency, dose response, plasminogen activation absorbance, OD405 (AID 1914); type: functional, Streptococcus pyogenes M1 GAS;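 also: secreted streptokinase activity via plasminogen activation per viability signal from cell pellet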
T3 sequence (P10520 whole entry): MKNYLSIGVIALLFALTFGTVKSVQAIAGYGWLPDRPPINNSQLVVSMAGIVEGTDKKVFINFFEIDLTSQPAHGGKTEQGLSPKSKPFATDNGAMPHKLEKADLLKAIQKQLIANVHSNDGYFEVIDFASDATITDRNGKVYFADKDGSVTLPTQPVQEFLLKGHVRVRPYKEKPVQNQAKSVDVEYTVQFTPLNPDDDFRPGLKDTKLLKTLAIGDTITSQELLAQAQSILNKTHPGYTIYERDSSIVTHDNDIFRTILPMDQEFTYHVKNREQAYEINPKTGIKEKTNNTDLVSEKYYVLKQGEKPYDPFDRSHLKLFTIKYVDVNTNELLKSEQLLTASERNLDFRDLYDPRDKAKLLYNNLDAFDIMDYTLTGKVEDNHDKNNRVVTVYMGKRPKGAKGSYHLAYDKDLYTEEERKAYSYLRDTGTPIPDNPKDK

[10] = tested on: Streptococcus sp. 'group A'; assay: growth inhibition of control SK(-) GAS strain, dose response, counter-screen for streptokinase expression inhibitor project, luminescence, kanamycin, BacTiterGlo, confirmation (AID 1900); type: functional, organism-based
Streptococcus = assay: Group A Streptococcus viability loss, dose response, counter-screen for streptokinase expression inhibitor project, luminescence, BacTiterGlo (AID 1915); type: functional, organism-based;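 also: potency for reduction of bacterial viability or growth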
Beta-galactosidase = Beta-galactosidase (Escherichia coli, UniProt Q8VNN2); assay: PubChem AID 485352; type: functional
[11] = target: Type-1 angiotensin II receptor (Homo sapiens, UniProt P30556); assay: AT1 receptor antagonists, dose response, selectivity assay for APJ receptor antagonist project, cell-based, uHTS hits (AID 463214); type: functional;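 also: antagonist potency against angiotensin II stimulated AT1 response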
Cytochrome P450 3A4 = Cytochrome P450 3A4 (Homo sapiens, UniProt P08684);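 also: CYP3A4 tested as one member of a cytochrome P450 panel screen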
[12] = cytotoxicity in HMLE control line with eGFP shRNA, dose response, counter-screen for HMLE_sh_ECad selective toxicity project, cell-based, HMLE_sh_eGFP, luminescence (AID 463074); type: functional, Homo sapiens;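 also: HMLE human mammary epithelial cells expressing control shRNA against eGFP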
[13] = Luminescence Cell-Based Dose Retest to Confirm Inhibitors of Cancer Stem Cells. [Related pubchem assays (depositor defined):AID2717, AID2721]; type: functional; conditions: Homo sapiens
HeLa = assay: HeLa cell cytotoxicity, dose response, cytotoxicity control for MITF activator project, CellTiter-Glo luminescence, cherry-pick samples (AID 540259); type: functional, cell-based; conditions: Homo sapiens
[14] = target: T2, Luciferin 4-monooxygenase; assay: firefly luciferase enzyme inhibitors, dose response, biochemical, luminescence (AID 1891)
[15] = Luminescence Cell-Based Dose Confirmation HTS to Identify Inhibitors of Platelet Dense Granule Release. [Related pubchem assays: 1663 (Primary HTS), 1678 (Summary of Project)]; type: functional
[16] = target: Nuclear receptor subfamily 0 group B member 1 (Homo sapiens, UniProt P51843); assay: Luminescence-based cell-based high throughput dose response assay for inhibitors of the orphan nuclear receptor subfamily 0, group B, member 1 (DAX1; NR0B1). [Related pubchem assays (depositor defined):AID504766, AID504790]; type: functional
[17] = target: T4, DNA repair and recombination protein RAD54-like (Homo sapiens, UniProt Q92698); assay: inhibitors of human RAD54 branch migration, confirmation, biochemical, fluorescence, cherry-picked samples, dose series (AID 651657); type: functional
T4 sequence (Q92698 whole entry): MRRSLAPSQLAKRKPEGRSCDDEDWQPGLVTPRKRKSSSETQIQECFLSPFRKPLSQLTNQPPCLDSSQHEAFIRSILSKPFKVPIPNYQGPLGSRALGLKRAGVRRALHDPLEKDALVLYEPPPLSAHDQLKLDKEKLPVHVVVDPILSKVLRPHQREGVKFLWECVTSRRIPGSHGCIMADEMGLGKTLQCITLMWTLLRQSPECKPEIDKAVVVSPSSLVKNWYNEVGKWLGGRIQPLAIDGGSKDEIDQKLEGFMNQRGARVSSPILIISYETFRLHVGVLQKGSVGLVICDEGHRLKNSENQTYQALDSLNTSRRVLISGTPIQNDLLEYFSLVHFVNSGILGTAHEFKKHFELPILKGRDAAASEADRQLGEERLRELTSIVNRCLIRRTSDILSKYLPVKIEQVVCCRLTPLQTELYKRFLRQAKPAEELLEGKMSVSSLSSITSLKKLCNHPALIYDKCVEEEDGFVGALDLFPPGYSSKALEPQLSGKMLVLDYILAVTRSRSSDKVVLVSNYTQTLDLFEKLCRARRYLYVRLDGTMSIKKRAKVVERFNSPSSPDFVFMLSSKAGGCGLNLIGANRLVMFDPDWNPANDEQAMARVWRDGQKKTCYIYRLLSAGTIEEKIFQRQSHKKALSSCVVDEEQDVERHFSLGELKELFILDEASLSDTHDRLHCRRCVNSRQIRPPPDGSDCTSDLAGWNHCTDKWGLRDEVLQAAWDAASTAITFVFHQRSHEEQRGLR

HEK293 = assay: cells; type: functional, cell-based; conditions: Homo sapiens
[18] = target: T5, Short transient receptor potential channel 4 (Mus musculus, UniProt Q9QUQ5); assay: TRPC4 inhibitor concentration-response, dose response, cell-based, HEK293 TRPC4/mu-opioid, DAMGO stimulus, Fluo-4 (AID 492994); type: functional
T5 sequence (Q9QUQ5 whole entry): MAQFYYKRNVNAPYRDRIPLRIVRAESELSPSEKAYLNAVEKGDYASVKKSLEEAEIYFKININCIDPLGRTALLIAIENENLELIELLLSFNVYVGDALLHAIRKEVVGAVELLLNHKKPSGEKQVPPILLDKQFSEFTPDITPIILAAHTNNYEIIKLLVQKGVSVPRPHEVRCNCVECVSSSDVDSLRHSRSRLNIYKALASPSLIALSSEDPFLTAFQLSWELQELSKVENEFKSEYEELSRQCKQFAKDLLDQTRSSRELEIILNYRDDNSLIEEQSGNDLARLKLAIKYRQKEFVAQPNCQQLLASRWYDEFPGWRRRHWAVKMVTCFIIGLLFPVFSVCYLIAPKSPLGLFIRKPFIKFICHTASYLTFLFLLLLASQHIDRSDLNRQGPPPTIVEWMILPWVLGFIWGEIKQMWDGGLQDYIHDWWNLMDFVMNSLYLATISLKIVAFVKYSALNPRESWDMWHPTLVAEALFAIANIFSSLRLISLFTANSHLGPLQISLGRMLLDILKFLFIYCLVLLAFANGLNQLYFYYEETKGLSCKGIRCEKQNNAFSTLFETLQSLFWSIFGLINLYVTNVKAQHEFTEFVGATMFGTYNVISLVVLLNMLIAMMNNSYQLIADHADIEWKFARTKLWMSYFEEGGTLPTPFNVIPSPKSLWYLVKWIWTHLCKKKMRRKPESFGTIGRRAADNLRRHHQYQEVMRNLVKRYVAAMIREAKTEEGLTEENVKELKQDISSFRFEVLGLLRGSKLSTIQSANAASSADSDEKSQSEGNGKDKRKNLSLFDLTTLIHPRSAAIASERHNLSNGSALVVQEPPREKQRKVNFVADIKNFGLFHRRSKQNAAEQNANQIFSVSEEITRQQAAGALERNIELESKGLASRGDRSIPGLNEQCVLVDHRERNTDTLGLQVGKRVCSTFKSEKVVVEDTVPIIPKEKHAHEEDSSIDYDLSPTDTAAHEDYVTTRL

Hexokinase-1 = Hexokinase-1 (Homo sapiens, UniProt P19367); assay: SAR analysis of small molecule inhibitors of hexokinase domain containing I (HKDC1) in the hexokinase 1 selectivity assay. [Related pubchem assays (depositor defined):AID493160, AID493190]; type: functional
Hexokinase HKDC1 = Hexokinase HKDC1 (Homo sapiens, UniProt Q2TB90); assay: SAR analysis of small molecule inhibitors of hexokinase domain containing I (HKDC1). [Related pubchem assays (depositor defined):AID493160, AID493190]; type: functional
Candida albicans [19] = assay: fluconazole resistance reversal in C. albicans, dose response, CaCi-2 strain, Alamar Blue, dry powder, set 4 (AID 488943); type: functional, organism-based
Candida albicans [20] = assay: growth inhibition of resistant C. albicans, dose response, CaCi-8 strain, fluconazole, dry powder, set 4 (AID 488950); type: functional, organism-based
Candida albicans [21] = assay: growth inhibition of resistant C. albicans, dose response, CaCi-8, fluconazole, Alamar Blue, dry powder (AID 488807); type: functional, organism-based

T2 sequence (P08659 whole entry): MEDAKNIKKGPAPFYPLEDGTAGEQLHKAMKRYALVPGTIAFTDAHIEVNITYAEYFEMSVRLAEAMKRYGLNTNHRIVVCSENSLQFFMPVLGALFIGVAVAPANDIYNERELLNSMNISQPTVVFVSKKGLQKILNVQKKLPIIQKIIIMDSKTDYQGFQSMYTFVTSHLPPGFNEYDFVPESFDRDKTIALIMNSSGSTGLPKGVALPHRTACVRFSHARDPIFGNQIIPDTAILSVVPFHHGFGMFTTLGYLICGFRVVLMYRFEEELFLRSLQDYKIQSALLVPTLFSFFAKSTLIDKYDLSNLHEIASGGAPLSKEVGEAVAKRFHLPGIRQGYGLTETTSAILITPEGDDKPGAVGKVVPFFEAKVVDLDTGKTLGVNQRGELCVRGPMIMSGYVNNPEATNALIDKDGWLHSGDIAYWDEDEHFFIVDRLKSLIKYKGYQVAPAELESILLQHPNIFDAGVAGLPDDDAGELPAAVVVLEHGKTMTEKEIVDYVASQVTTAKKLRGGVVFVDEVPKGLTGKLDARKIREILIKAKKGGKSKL
Beta-galactosidase, sequence (Q8VNN2 whole entry): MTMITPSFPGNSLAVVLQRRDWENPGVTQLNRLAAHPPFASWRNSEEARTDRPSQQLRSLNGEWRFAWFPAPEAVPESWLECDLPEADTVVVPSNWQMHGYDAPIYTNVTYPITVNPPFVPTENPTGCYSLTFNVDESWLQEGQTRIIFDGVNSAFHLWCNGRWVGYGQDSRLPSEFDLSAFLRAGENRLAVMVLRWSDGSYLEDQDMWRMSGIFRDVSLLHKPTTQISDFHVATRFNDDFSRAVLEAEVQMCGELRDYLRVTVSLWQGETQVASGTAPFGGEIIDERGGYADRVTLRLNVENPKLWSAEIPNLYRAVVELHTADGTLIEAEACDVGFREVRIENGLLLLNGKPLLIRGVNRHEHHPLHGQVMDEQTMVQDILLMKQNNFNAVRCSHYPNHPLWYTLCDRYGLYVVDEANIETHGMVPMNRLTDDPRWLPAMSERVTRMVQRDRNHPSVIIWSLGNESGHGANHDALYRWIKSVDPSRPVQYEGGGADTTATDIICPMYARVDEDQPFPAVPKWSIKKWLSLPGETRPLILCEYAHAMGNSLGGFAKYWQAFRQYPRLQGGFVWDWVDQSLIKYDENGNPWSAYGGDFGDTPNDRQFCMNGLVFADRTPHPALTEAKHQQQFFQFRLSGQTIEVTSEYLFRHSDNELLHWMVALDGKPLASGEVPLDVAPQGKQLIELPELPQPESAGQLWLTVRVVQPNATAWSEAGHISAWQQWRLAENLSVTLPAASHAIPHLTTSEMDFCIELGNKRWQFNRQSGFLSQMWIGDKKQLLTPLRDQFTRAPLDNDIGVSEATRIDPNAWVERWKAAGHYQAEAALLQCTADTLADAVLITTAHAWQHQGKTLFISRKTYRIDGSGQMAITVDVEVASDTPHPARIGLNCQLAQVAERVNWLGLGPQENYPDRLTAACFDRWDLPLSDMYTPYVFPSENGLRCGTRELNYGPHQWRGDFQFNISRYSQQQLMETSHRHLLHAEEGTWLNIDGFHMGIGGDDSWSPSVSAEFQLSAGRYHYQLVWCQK
Type-1 angiotensin II receptor, sequence (P30556 whole entry): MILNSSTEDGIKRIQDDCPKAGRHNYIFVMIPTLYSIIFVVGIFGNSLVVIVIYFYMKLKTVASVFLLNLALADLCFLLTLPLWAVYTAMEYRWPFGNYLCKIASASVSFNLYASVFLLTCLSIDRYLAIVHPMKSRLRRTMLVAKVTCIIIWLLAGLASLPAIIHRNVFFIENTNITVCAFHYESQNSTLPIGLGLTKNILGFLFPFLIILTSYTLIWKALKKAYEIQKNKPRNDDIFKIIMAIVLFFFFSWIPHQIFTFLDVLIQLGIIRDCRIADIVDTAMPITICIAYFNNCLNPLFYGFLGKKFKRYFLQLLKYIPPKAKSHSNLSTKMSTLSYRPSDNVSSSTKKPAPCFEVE
Hexokinase HKDC1, sequence (Q2TB90 whole entry, the tested form may be a part): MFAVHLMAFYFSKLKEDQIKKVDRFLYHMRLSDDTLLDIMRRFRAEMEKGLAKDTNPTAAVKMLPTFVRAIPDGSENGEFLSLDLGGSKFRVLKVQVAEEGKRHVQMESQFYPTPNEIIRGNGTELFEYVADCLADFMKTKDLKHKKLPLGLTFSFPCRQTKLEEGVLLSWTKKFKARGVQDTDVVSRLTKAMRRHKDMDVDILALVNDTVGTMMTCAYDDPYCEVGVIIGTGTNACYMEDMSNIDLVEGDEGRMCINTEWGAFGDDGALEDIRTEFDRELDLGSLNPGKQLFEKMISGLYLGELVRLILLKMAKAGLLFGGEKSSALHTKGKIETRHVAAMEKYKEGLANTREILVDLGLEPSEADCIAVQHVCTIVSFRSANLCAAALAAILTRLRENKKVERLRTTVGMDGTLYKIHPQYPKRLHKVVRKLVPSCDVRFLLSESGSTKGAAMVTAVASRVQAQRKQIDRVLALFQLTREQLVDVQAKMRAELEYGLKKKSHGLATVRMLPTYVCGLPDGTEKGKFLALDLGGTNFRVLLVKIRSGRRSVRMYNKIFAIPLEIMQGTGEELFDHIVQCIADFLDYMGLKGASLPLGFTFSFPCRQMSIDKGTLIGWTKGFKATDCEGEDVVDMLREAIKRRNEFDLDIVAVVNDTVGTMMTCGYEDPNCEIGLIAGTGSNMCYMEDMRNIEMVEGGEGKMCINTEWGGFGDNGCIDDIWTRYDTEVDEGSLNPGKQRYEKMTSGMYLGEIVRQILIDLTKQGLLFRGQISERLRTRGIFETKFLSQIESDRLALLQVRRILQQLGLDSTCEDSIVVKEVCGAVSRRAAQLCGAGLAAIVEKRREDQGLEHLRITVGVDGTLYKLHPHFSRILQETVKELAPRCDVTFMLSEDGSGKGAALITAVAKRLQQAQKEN
Cysteine protease ATG4B, sequence (Q9Y4P1 whole entry): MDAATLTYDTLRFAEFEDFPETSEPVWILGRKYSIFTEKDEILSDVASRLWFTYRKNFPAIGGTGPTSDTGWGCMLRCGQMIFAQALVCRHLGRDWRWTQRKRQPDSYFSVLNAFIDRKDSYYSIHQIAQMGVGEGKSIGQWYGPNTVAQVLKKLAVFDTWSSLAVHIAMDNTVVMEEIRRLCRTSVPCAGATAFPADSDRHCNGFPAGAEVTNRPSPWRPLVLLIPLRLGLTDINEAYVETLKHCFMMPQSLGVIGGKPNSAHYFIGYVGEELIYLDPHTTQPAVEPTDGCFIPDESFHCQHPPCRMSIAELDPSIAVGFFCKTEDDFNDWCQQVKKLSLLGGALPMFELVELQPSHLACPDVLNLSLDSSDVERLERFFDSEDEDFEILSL
Cytochrome P450 3A4, sequence (P08684 whole entry): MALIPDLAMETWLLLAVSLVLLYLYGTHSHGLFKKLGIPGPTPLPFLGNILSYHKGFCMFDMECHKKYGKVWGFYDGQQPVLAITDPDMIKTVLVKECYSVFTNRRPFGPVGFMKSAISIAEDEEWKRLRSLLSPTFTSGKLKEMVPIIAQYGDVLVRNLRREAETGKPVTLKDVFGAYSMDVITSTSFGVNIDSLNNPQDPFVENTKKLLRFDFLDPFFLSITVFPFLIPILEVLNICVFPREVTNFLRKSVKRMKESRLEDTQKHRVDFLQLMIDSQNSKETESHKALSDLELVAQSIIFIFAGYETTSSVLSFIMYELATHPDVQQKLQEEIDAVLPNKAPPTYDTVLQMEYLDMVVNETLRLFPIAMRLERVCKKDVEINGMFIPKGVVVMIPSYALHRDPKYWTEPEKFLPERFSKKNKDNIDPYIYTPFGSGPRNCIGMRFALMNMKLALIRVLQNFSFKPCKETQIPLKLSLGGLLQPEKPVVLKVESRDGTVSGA
Nuclear receptor subfamily 0 group B member 1, sequence (P51843 whole entry): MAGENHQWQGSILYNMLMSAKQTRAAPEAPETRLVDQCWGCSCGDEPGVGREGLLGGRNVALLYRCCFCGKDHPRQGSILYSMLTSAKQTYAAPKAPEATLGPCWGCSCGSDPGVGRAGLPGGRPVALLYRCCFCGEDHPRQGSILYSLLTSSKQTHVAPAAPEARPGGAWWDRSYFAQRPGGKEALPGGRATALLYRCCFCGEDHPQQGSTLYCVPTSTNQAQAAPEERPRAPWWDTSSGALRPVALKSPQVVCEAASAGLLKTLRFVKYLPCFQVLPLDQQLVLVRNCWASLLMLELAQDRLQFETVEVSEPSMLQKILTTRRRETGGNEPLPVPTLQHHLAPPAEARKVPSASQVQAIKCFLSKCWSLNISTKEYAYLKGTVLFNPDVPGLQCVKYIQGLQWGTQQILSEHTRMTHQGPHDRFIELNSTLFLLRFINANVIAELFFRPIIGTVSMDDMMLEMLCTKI
Phospholipase A2, sequence (P04054 whole entry): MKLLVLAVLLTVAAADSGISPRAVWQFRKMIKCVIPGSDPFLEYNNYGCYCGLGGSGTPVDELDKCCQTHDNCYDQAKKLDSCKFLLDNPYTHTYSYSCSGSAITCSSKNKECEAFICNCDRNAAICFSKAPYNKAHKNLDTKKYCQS

Structure (SMILES): CC(C)(C)c1ccc(C(=O)N2CCCCCC2=O)cc1
- AC50 (A-375 [1]): > 35 µM (active)
- IC50 (Jurkat): 0.38 µM (active)
- AC50 [2]: 2.77 µM (active)
- AC50 [3]: 1.12 µM (active)
- EC50 [4]: 1.5 µM (active)
- EC50 (HT-1080): > 50 µM (not active)
- IC50 [5]: > 80 µM (inactive)
- AC50 [6]: 4.27 µM (active)
- AC50 (A-375 [7]): > 35 µM (active)
- AC50 [8]: 0.611 µM (active)
- AC50 [9]: 1.73 µM (active)

Structure (SMILES): CSc1nnc2nc3c(c(O)n12)C1(CCCCC1)Cc1ccccc1-3
- IC50 (Cysteine protease ATG4B): 7.09 µM (active)
- IC50 (Phospholipase A2): 5.6 µM (active)
- EC50 (Streptokinase A): > 150 µM (not active)
- EC50 [10]: 7.86 µM (active)
- EC50 (Streptococcus): 123 µM (active)

Structure (SMILES): CN(C)c1ccc(/C=C2\N=C(c3ccc(Cl)c([N+](=O)[O-])c3)NC2=O)cc1
- EC50 (Beta-galactosidase): > 40 µM (inactive)
- IC50 [11]: > 40 µM (not active)

Structure (SMILES): O=C(c1cc(C(F)(F)F)cc(C(F)(F)F)c1)N1CCC2(CC1)CN(c1ccccc1)C2
- AC50 (Cytochrome P450 3A4): inconclusive

Structure (SMILES): CN(c1ccccc1)c1ccc(/C=C(\C#N)c2nnc3n2CCCCC3)cc1[N+](=O)[O-]
- AC50 [12]: 24.3 µM (active)
- AC50 [13]: 0.597 µM (active)

Structure (SMILES): COc1ccc(C(=O)Nc2cc(OC)nc(OC)n2)cc1
- AC50 (HeLa): 178 µM (active)
- EC50 [14]: 16.3 µM (active)
- EC50 [15]: 8.79 µM (active)

Structure (SMILES): CCN(CC)CCCNC(=O)c1cc2c(=O)n(C)c3ccccc3c2n1C
- IC50 [16]: > 67.5 µM (inactive)
- AC50 [17]: 26.9 µM (active)
- IC50 (HEK293): > 67.5 µM (inactive)

Structure (SMILES): COCCN(C)c1cc(C)c2ccccc2n1
- IC50 [18]: 20.8 µM (active)

Structure (SMILES): N#Cc1ccc(CSc2nnc(NC(=O)c3ccncc3)s2)cc1
- IC50 (Hexokinase-1): > 80 µM (inactive)
- IC50 (Hexokinase HKDC1): > 80 µM (inactive)

Structure (SMILES): O=C(c1ccc(Cl)cc1)N1CCN(c2ccc(Cl)cc2)CC1
- AC50 (Candida albicans [19]): 4.76 µM (active)
- AC50 (Candida albicans [20]): 5.25 µM (active)
- AC50 (Candida albicans [21]): 0.375 µM (active)
